The values below come from PubChem BioAssay (NCI).

Among the test systems are LOX IMVI melanoma; UACC-257 melanoma; BT-549 breast; NCI-H522 lung; DU-145 prostate; HCC-2998 colon; HCT-116 colon; SK-MEL-5 melanoma.
Common to all, as to assay: growth of human tumour cells (NCI), 48 h

SMILES strings stand for the structures.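 Growth conditions: 96-well plates. Treatment: test compound, 48 hours, 5 concentrations. Analysis: linear interpolation between bracketing concentrations; unreached endpoints set to highest concentration. Abbreviation: GI50, concentration required for 50% inhibition of growth. TGI is the concentration that stops growth completely.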

In the case of `CCNCCS(=O)(=O)NC[C@@]1(c2ccccc2)SC(NC(=O)C(C)(C)C)=NN1C(=O)C(C)(C)C`, the GI50 in the assay on LOX IMVI melanoma is < 0.0285 µM; in the assay on UACC-257 melanoma it was 11.8 µM; in the assay with BT-549 breast it was 0.357 µM; with NCI-H522 lung it was < 0.01 µM; in the assay on DU-145 prostate it was < 0.0159 µM; in the assay with HCC-2998 colon, < 0.01 µM. For the same compound, the GI50 with HCT-116 colon and in the assay on SK-MEL-5 melanoma was < 0.01 µM in each case. Further, the TGI was > 47.3 µM with LOX IMVI melanoma; > 76.9 µM in the assay with UACC-257 melanoma; > 100 µM with BT-549 breast; < 0.01 µM with NCI-H522 lung; > 100 µM in the assay on DU-145 prostate; > 51.2 µM in the assay with HCC-2998 colon. Also, the results for the TGI in the assay with HCT-116 colon and in the assay with SK-MEL-5 melanoma were > 100 µM and 20.3 µM, respectively.

With `O=C(Nc1nc2ccc(OC(F)(F)F)cc2s1)c1ccc(F)cc1`, the GI50 with LOX IMVI melanoma is 3.21 µM; in the assay on UACC-257 melanoma, 3.57 µM; in the assay with BT-549 breast, 3.76 µM; in the assay with NCI-H522 lung, 3.14 µM; in the assay on DU-145 prostate it was 3.44 µM; in the assay on HCC-2998 colon it was 3.91 µM. The GI50 in the assay with HCT-116 colon is 2.98 µM; in the assay on SK-MEL-5 melanoma, 2.45 µM. The TGI was 9.03 µM in the assay on LOX IMVI melanoma; 26.7 µM in the assay on UACC-257 melanoma; 54.6 µM in the assay on BT-549 breast; 11.4 µM in the assay on NCI-H522 lung; > 100 µM in the assay with DU-145 prostate; > 100 µM with HCC-2998 colon. The TGI with HCT-116 colon was 10.1 µM; with SK-MEL-5 melanoma, 6.6 µM.

`Cc1ncnc2c1ccn2[C@@H]1C[C@H](Oc2cc(C(F)F)c(F)c3c2CNCC3)[C@@H](O)[C@H]1O`: the GI50 in the assay on LOX IMVI melanoma, in the assay with UACC-257 melanoma, in the assay on BT-549 breast, in the assay on NCI-H522 lung, with DU-145 prostate and in the assay with HCC-2998 colon was > 100 µM in each case. Also, the GI50 in the assay on HCT-116 colon and with SK-MEL-5 melanoma was > 100 µM each time. In addition, the TGI in the assay with LOX IMVI melanoma, with UACC-257 melanoma, with BT-549 breast, in the assay with NCI-H522 lung, in the assay with DU-145 prostate and with HCC-2998 colon was > 100 µM each time. Moreover, the TGI with HCT-116 colon and in the assay with SK-MEL-5 melanoma was > 100 µM throughout.

Consider `CN1CCC(=C(c2ccc(Cl)cc2)c2ccccn2)CC1`, for which the GI50 in the assay with LOX IMVI melanoma is 56.7 µM; with UACC-257 melanoma, 21.5 µM; in the assay on BT-549 breast, 79.8 µM; with NCI-H522 lung it was 95.5 µM; with DU-145 prostate, > 100 µM; in the assay on HCC-2998 colon, > 100 µM. In addition, the GI50 in the assay with HCT-116 colon was 66.5 µM; in the assay with SK-MEL-5 melanoma it was 50.7 µM. The TGI with LOX IMVI melanoma is > 100 µM; with UACC-257 melanoma, 45.8 µM; with BT-549 breast, > 100 µM; in the assay on NCI-H522 lung, > 100 µM; with DU-145 prostate, > 100 µM; in the assay on HCC-2998 colon it was > 100 µM. In addition, the TGI in the assay on HCT-116 colon and in the assay with SK-MEL-5 melanoma was > 100 µM in each case.

As for `Oc1ccc(/C=N/NC(=S)Nc2ccccc2)nc1`, the GI50 with LOX IMVI melanoma was 0.464 µM; in the assay with UACC-257 melanoma, 2.18 µM; in the assay on BT-549 breast it was 1.7 µM; in the assay with NCI-H522 lung, 1.94 µM; with DU-145 prostate, 1.1 µM; in the assay on HCC-2998 colon, 4.09 µM. Besides, the GI50 with HCT-116 colon is 1.42 µM; in the assay on SK-MEL-5 melanoma, 0.754 µM. For the same compound, the TGI is 16.6 µM in the assay on LOX IMVI melanoma; 6.84 µM in the assay with UACC-257 melanoma; > 100 µM in the assay on BT-549 breast; 39.8 µM in the assay on NCI-H522 lung; > 100 µM in the assay with DU-145 prostate; > 100 µM in the assay with HCC-2998 colon. The TGI was > 100 µM in the assay with HCT-116 colon and 3.36 µM with SK-MEL-5 melanoma.

In the case of `CN1C(=O)[C@@H](CC2CCCC2)N(C2CCCC2)c2nc(Nc3cc(Cl)c(O)c(Cl)c3)ncc21`, the GI50 with LOX IMVI melanoma was 19.5 µM; in the assay with UACC-257 melanoma it was 25.1 µM; in the assay with BT-549 breast it was 18.2 µM; with NCI-H522 lung it was 10.8 µM; in the assay with DU-145 prostate, 27.6 µM; with HCC-2998 colon it was 29.8 µM. For the same compound, the GI50 is 13.1 µM in the assay on HCT-116 colon and 17.4 µM in the assay on SK-MEL-5 melanoma. The TGI with LOX IMVI melanoma is 49.3 µM; with UACC-257 melanoma, > 100 µM; in the assay on BT-549 breast, 53.2 µM; with NCI-H522 lung, > 100 µM; in the assay on DU-145 prostate, > 100 µM; in the assay on HCC-2998 colon, > 100 µM. For the same compound, the TGI worked out at 30.4 µM in the assay with HCT-116 colon and 32.9 µM in the assay on SK-MEL-5 melanoma.

As for `CC1(C)CCC2(C(=O)O)C(O)CC3(C)C(=CCC4C5(C)CCC(OC6OCC(O)C(O)C6OC6OCC(O)C(O)C6OC6OCC(O)C(OC7OC(CO)C(O)C(O)C7O)C6O)C(C)(C)C5CCC43C)C2C1` (stereo unspecified), the TGI in the assay with LOX IMVI melanoma is > 100 µM; with UACC-257 melanoma it was > 100 µM; in the assay on BT-549 breast, 86.4 µM; with NCI-H522 lung it was 49.4 µM; in the assay on DU-145 prostate, > 100 µM; with HCC-2998 colon it was > 100 µM. Moreover, the TGI in the assay with HCT-116 colon and in the assay with SK-MEL-5 melanoma was > 100 µM each time.

Regarding `CN1CCN(CCCCCOc2cc(O)c3c(=O)cc(-c4ccccc4)oc3c2)CC1`, the GI50 was 1.6 µM in the assay on LOX IMVI melanoma; 2.03 µM with UACC-257 melanoma; 13.4 µM in the assay on BT-549 breast; 2.59 µM in the assay on NCI-H522 lung; 10.5 µM in the assay with DU-145 prostate; 0.239 µM in the assay with HCC-2998 colon. Further, the GI50 was 1.74 µM in the assay with HCT-116 colon and 3.13 µM with SK-MEL-5 melanoma. The TGI in the assay on LOX IMVI melanoma was 2.95 µM; in the assay with UACC-257 melanoma, 3.78 µM; in the assay with BT-549 breast it was 29.7 µM; in the assay with NCI-H522 lung, 6.71 µM; in the assay on DU-145 prostate, > 100 µM; in the assay on HCC-2998 colon it was 4.9 µM. The TGI in the assay with HCT-116 colon stood at 4.08 µM; in the assay with SK-MEL-5 melanoma it was 10.3 µM.

Take `CCN1C[C@@H](C)n2c(c(O)c3c(=O)n(Cc4ccc(F)c(Cl)c4)nc(C(=O)NC)c32)C1=O`: the GI50 was 3.13 µM with LOX IMVI melanoma; 2.32 µM in the assay with UACC-257 melanoma; 3.49 µM with BT-549 breast; 2.95 µM in the assay on NCI-H522 lung; 3.57 µM in the assay with DU-145 prostate; 2.54 µM in the assay on HCC-2998 colon. For the same compound, the GI50 was 3.21 µM in the assay with HCT-116 colon and 1.98 µM in the assay with SK-MEL-5 melanoma. Besides, the TGI with LOX IMVI melanoma is 18 µM; in the assay on UACC-257 melanoma, 6.77 µM; in the assay on BT-549 breast, > 100 µM; in the assay on NCI-H522 lung, 9.47 µM; in the assay with DU-145 prostate, 13.8 µM; with HCC-2998 colon it was 6.08 µM. Also, the TGI is > 100 µM in the assay on HCT-116 colon and 4.49 µM in the assay on SK-MEL-5 melanoma.
